In the kinase profiling compilation of Christmann-Franck et al. (2016):
Blank lines part the entries; values can stand above or below the compound they belong to.

Columns and labels:
Assay in all cases: radiometric filter-binding kinase assay
MYLK (human) = MYLK (human) (UniProt Q15746)
STK16 (human) = STK16 (human) (UniProt O75716)
TLK1 (human) = TLK1 (human) (UniProt Q9UKI8)
TEK (human) = TEK (human) (UniProt Q02763)
PRKCG (human) = PRKCG (human) (UniProt P05129)
PTK6 (human) = PTK6 (human) (UniProt Q13882)
Sequence of PTK6 (human) (Q13882 whole entry, looked up): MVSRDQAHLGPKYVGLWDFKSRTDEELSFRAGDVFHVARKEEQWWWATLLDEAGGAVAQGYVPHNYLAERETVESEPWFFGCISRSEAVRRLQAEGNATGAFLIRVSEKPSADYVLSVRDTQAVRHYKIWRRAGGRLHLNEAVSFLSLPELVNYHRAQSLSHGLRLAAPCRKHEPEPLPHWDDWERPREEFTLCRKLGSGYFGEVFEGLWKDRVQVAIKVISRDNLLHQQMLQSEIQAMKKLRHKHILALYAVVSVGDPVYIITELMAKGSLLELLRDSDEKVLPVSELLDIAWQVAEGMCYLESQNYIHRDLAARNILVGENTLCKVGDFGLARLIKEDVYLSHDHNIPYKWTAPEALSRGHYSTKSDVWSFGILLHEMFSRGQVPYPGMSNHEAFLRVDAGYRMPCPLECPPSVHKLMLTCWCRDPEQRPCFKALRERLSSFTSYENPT

IRAK1 (human) = IRAK1 (human) (UniProt P51617)
[1] = test system: OXSR1 (human), O95747 [T185E]
ZAP70 (human) = ZAP70 (human) (UniProt P43403)
STK33 (human) = STK33 (human) (UniProt Q9BYT3)
Sequence of STK33 (human) (Q9BYT3 whole entry, looked up): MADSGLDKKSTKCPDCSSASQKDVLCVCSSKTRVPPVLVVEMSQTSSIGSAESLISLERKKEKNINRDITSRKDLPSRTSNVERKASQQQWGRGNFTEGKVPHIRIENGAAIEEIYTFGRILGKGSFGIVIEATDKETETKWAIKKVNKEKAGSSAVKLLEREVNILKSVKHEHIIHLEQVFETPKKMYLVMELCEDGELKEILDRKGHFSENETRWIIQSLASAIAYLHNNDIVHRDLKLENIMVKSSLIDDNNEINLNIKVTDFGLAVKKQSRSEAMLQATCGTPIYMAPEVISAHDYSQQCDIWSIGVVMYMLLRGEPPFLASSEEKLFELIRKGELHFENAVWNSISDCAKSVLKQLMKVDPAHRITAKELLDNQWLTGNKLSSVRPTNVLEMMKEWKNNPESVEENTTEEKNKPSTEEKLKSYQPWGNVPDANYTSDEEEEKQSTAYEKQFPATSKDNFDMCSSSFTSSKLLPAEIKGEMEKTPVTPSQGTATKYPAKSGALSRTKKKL

ABL1 (human) = ABL1 (human) (UniProt P00519)
EIF2AK3 (human) = EIF2AK3 (human) (UniProt Q9NZJ5)
Sequence of EIF2AK3 (human) (Q9NZJ5 whole entry, looked up): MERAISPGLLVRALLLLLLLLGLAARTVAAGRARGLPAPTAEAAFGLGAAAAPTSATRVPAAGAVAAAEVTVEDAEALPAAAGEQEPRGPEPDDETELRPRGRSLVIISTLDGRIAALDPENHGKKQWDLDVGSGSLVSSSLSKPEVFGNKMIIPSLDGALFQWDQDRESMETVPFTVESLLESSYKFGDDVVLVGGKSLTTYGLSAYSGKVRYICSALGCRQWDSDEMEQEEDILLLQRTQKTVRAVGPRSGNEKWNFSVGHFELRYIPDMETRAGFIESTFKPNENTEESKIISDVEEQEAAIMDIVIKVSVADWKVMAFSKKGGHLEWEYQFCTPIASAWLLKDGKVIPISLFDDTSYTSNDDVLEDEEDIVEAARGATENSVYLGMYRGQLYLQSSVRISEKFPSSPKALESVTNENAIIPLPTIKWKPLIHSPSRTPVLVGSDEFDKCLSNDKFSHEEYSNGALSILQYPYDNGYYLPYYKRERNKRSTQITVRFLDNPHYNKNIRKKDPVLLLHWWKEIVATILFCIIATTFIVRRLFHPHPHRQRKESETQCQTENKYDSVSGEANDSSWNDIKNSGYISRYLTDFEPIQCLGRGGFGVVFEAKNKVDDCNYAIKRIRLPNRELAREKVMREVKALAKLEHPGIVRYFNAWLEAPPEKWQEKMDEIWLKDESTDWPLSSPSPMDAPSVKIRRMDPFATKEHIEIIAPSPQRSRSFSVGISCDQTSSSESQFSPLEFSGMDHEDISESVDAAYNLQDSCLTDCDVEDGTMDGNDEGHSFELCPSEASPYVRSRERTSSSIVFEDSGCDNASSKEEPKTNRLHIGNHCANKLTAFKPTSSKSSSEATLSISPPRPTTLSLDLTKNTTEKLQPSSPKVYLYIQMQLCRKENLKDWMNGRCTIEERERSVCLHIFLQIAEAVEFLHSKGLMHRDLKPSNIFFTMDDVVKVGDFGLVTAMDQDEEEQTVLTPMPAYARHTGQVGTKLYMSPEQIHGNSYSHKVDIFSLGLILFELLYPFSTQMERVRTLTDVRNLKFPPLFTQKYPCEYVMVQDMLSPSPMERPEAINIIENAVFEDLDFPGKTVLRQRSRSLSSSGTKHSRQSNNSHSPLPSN

Sequence of TLK1 (human) (Q9UKI8 whole entry, looked up): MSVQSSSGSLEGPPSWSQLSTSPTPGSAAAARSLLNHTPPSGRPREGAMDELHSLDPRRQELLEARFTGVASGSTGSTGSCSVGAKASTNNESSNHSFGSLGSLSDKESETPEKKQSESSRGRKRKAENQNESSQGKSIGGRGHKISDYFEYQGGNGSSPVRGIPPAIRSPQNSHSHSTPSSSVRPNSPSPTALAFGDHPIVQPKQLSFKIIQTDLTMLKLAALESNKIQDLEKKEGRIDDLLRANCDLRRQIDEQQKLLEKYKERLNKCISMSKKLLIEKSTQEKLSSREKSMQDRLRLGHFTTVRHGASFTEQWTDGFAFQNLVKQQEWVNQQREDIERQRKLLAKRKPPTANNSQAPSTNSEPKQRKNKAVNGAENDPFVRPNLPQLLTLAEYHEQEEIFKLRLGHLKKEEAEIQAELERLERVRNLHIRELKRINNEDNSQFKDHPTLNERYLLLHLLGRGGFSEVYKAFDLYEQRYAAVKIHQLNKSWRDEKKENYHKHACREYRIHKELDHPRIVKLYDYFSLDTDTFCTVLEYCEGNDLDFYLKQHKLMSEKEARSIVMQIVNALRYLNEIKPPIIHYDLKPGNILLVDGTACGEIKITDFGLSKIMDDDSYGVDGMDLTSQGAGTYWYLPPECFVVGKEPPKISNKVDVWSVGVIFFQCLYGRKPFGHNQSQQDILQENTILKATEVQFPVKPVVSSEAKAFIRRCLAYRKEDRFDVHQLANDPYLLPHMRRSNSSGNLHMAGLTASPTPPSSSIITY
Sequence of TEK (human) (Q02763 whole entry, looked up): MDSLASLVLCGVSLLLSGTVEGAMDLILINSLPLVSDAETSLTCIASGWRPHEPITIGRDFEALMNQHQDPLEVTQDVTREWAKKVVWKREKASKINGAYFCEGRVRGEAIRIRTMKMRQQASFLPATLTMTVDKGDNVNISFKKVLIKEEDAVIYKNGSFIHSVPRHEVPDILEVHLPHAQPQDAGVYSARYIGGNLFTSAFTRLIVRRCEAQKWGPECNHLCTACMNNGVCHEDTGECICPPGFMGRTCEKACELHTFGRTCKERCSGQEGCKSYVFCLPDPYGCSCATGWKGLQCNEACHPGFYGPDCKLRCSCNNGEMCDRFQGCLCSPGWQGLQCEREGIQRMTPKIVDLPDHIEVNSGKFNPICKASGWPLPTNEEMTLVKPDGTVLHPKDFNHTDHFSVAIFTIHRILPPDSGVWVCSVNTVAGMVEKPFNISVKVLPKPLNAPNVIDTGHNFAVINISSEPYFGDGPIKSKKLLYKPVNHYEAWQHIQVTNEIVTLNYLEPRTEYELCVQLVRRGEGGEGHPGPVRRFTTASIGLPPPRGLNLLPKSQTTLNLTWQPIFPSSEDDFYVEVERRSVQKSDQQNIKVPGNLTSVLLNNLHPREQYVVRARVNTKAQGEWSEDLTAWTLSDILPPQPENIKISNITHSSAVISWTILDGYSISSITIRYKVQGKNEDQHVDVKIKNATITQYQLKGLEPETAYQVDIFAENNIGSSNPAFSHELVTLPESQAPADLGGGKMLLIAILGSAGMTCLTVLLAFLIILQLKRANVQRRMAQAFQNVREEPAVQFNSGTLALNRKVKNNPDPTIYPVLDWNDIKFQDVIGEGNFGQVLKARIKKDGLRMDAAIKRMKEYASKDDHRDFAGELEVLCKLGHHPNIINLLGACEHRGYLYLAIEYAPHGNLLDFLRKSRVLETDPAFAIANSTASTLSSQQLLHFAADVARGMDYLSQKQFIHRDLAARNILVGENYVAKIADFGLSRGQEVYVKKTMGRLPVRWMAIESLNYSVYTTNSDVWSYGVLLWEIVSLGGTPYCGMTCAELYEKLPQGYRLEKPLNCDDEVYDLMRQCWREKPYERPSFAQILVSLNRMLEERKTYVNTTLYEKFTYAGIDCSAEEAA
Sequence of STK16 (human) (O75716 whole entry, looked up): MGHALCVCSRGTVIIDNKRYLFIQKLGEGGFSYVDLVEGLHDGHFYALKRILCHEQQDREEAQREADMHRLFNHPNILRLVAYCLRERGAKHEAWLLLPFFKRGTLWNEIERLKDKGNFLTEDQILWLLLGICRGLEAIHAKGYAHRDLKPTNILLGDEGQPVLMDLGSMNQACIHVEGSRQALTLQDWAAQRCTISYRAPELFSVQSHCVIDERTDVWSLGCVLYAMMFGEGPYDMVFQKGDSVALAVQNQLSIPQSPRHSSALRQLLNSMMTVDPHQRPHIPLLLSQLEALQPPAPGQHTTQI

residual activity (MYLK (human); compound 10.0 µM): 86%
residual activity (STK16 (human); compound 1.0 µM): 87%
residual activity (STK16 (human); compound 10.0 µM): 86%
residual activity (TLK1 (human); compound 1.0 µM): 95%
residual activity (TLK1 (human); compound 10.0 µM): 100%
residual activity (TEK (human); compound 1.0 µM): 106%
residual activity (TEK (human); compound 10.0 µM): 87%
residual activity (PRKCG (human); compound 1.0 µM): 110%
residual activity (PRKCG (human); compound 10.0 µM): 100%
residual activity (PTK6 (human); compound 1.0 µM): 126%
residual activity (PTK6 (human); compound 10.0 µM): 110%
residual activity (IRAK1 (human); compound 1.0 µM): 81%
residual activity (IRAK1 (human); compound 10.0 µM): 79%
residual activity ([1]; compound 10.0 µM): 87%
residual activity (ZAP70 (human); compound 1.0 µM): 77%
residual activity (ZAP70 (human); compound 10.0 µM): 98%
residual activity (STK33 (human); compound 1.0 µM): 92%
residual activity (STK33 (human); compound 10.0 µM): 90%
residual activity (ABL1 (human); compound 1.0 µM): 101%
residual activity (ABL1 (human); compound 10.0 µM): 107%
Compound: O=C(NOCC(O)CO)c1ccc(F)c(F)c1Nc1ccc(I)cc1Cl (stereo unspecified)

residual activity (MYLK (human); compound 10.0 µM): 98%
residual activity (STK16 (human); compound 1.0 µM): 85%
residual activity (STK16 (human); compound 10.0 µM): 101%
residual activity (TLK1 (human); compound 1.0 µM): 96%
residual activity (TLK1 (human); compound 10.0 µM): 104%
residual activity (TEK (human); compound 10.0 µM): 96%
residual activity (PRKCG (human); compound 1.0 µM): 91%
residual activity (PRKCG (human); compound 10.0 µM): 99%
residual activity (PTK6 (human); compound 1.0 µM): 115%
residual activity (PTK6 (human); compound 10.0 µM): 121%
residual activity (IRAK1 (human); compound 1.0 µM): 84%
residual activity (IRAK1 (human); compound 10.0 µM): 89%
residual activity ([1]; compound 1.0 µM): 95%
residual activity ([1]; compound 10.0 µM): 93%
residual activity (ZAP70 (human); compound 1.0 µM): 84%
residual activity (ZAP70 (human); compound 10.0 µM): 100%
residual activity (STK33 (human); compound 10.0 µM): 107%
residual activity (ABL1 (human); compound 1.0 µM): 103%
residual activity (ABL1 (human); compound 10.0 µM): 98%
residual activity (EIF2AK3 (human); compound 1.0 µM): 96%
residual activity (EIF2AK3 (human); compound 10.0 µM): 105%
Compound: O=C(NOC[C@H](O)CO)c1ccc(F)c(F)c1Nc1ccc(I)cc1Cl

residual activity (MYLK (human); compound 0.01 µM): 96%
residual activity (MYLK (human); compound 0.1 µM): 93%
residual activity (MYLK (human); compound 1.0 µM): 106%
residual activity (STK16 (human); compound 0.01 µM): 82%
residual activity (STK16 (human); compound 0.1 µM): 96%
residual activity (STK16 (human); compound 1.0 µM): 83%
residual activity (TLK1 (human); compound 0.01 µM): 107%
residual activity (TLK1 (human); compound 0.1 µM): 99%
residual activity (TLK1 (human); compound 1.0 µM): 90%
residual activity (TEK (human); compound 0.01 µM): 94%
residual activity (TEK (human); compound 0.1 µM): 103%
residual activity (TEK (human); compound 1.0 µM): 69%
residual activity (PRKCG (human); compound 0.01 µM): 101%
residual activity (PRKCG (human); compound 0.1 µM): 115%
residual activity (PRKCG (human); compound 1.0 µM): 106%
residual activity (PTK6 (human); compound 0.01 µM): 114%
residual activity (PTK6 (human); compound 0.1 µM): 130%
residual activity (PTK6 (human); compound 1.0 µM): 124%
residual activity (IRAK1 (human); compound 0.01 µM): 94%
residual activity (IRAK1 (human); compound 0.1 µM): 100%
residual activity (IRAK1 (human); compound 1.0 µM): 89%
residual activity ([1]; compound 0.01 µM): 83%
residual activity ([1]; compound 0.1 µM): 114%
residual activity ([1]; compound 1.0 µM): 92%
residual activity (ZAP70 (human); compound 0.01 µM): 76%
residual activity (ZAP70 (human); compound 0.1 µM): 77%
residual activity (ZAP70 (human); compound 1.0 µM): 84%
residual activity (STK33 (human); compound 0.01 µM): 97%
residual activity (STK33 (human); compound 0.1 µM): 106%
residual activity (STK33 (human); compound 1.0 µM): 88%
residual activity (ABL1 (human); compound 0.01 µM): 95%
residual activity (ABL1 (human); compound 1.0 µM): 97%
residual activity (EIF2AK3 (human); compound 0.01 µM): 109%
residual activity (EIF2AK3 (human); compound 0.1 µM): 117%
residual activity (EIF2AK3 (human); compound 1.0 µM): 104%
Compound: O=C(Nc1nc2cc(C(F)(F)F)cc(NC3CC3)n2n1)c1cccnc1

residual activity (MYLK (human); compound 1.0 µM): 96%
residual activity (MYLK (human); compound 10.0 µM): 49%
residual activity (STK16 (human); compound 1.0 µM): 107%
residual activity (STK16 (human); compound 10.0 µM): 92%
residual activity (TEK (human); compound 10.0 µM): 75%
residual activity (PRKCG (human); compound 1.0 µM): 98%
residual activity (PRKCG (human); compound 10.0 µM): 110%
residual activity (PTK6 (human); compound 1.0 µM): 114%
residual activity (PTK6 (human); compound 10.0 µM): 95%
residual activity (ZAP70 (human); compound 1.0 µM): 94%
residual activity (ZAP70 (human); compound 10.0 µM): 80%
residual activity (STK33 (human); compound 1.0 µM): 87%
residual activity (STK33 (human); compound 10.0 µM): 74%
residual activity (ABL1 (human); compound 1.0 µM): 93%
residual activity (ABL1 (human); compound 10.0 µM): 82%
Compound: NC(=O)c1c(NC(=O)C2CC2)sc2c1CCCC2
